Measurements from publication PMC5374635, “Inhibitory Potential of Constituents from Osmanthus fragrans and Structural Analogues Against Advanced Glycation End Products, α-Amylase, α-Glucosidase, and Oxidative Stress” (Scientific Reports, 2017).
Converted amounts (≈) assume the structure as drawn.

Experiments:
[1] = molecular target: T1, porcine pancreatic α-amylase (EC 3.2.1.1, type VI) (Sus scrofa, UniProt P00690); experiment: α-Amylase inhibition; type: biochemical; details: for IC50: means ± SE; for times more active than acarbose against α-amylase: ratio of IC50 values versus acarbose
T1 construct: purchased Sigma-Aldrich (St. Louis, MO, USA) type VI (catalogue number not given)
T1 sequence (P00690 16-511): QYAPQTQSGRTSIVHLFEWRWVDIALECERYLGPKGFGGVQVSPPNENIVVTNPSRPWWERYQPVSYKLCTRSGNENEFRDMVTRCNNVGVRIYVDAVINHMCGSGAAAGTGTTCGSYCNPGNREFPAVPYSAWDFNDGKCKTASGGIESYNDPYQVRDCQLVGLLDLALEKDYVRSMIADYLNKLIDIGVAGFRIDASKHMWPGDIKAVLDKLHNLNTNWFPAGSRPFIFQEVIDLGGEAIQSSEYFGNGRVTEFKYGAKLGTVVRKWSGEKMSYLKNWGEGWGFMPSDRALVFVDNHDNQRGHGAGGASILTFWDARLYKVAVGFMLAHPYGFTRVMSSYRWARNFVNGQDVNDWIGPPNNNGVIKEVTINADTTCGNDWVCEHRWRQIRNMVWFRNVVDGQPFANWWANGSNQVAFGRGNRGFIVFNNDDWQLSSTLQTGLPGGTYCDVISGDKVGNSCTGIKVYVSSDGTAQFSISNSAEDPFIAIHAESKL
Procedure: The inhibitory activity of each sample against α-amylase was measured as described previously. Sample (40 μL) dissolved in sodium phosphate buffer (SPB, 20 mM and pH 6.9) with 6 mM NaCl was added to 1.0 U/ml α-amylase (200 μL) in SPB and incubated at 30 °C for 10 min. After 10 min, 400 μL of 0.3% starch solution in SPB was added to each tube. […] Each tube was incubated in boiling water for 20 min and cooled to 27 °C. The reaction was diluted by adding 10 ml distilled water and absorbance at 540 nm was measured using a UV-Vis spectrophotometer. The control contained 20 mM SPB (pH 6.9, 200 μL) instead of α-amylase.

[2] = DPPH radical scavenging activity; details: for IC50 values, DPPH: means ± SE; for times more active than ascorbic acid in DPPH radical scavenging: ratio of IC50 values versus ascorbic acid
Procedure: DPPH radical scavenging activity of each sample for the inhibition of diabetic complications was evaluated as described previously. Methanol solution (100 μL) containing some concentrations of the sample or ascorbic acid (0.2 mg/mL) as a positive control was mixed with 0.2 mM DPPH (100 μL) in wells of a 96-well microplate. Each reaction volume was mixed and allowed to stand in the dark at 28 °C for 30 min. […] The DPPH solution was freshly prepared daily, and was covered and kept in the dark at 4 °C until the measurements were made. Measurements were performed at least in triplicate.

AGEs formation = experiment: Inhibition of AGEs formation (bovine serum albumin with fructose/glucose, fluorescence); type: biochemical; details: for IC50 values, AGE (inhibition of AGEs formation): means ± SE, 37 °C, 7 days; for times more active than aminoguanidine in inhibition of AGEs formation: ratio of IC50 values versus aminoguanidine
Procedure: The inhibitory activity against AGEs formation was measured as described previously. To prepare the AGEs reaction solution, bovine serum albumin (10 mg/mL) dissolved in 50 mM SPB (pH 7.4) was added to 200 mM fructose, 200 mM glucose, and 0.02% NaN3 to prevent the growth of bacteria. The reaction solution (950 μL) was mixed with various concentrations of the samples (50 μL) in 10% (CH3)2SO. After incubation at 37 °C for 7 days, the fluorescence intensity of the reaction solution was analyzed using a spectrofluorometric detector (Bio-Tek Inc., Winooski, VT, USA) with an excitation wavelength of 350 nm and an emission wavelength of 450 nm. Aminoguanidine hydrochloride served as a positive control.

[3] = test system: blood glucose levels in mice; experiment: Disaccharide (sucrose) loading test; type: in vivo; details: fasted male mice, 50 mg/kg via stomach tube with sucrose 2.5 g/kg, at 15 and 30 mins, compared to sucrose alone
Procedure: After an overnight fast, male mice (31-35 g) were used for acute disaccharide loading tests (Fig. 2). […] A control group was loaded with sucrose only. The blood glucose levels were measured using an Accu-Check Performa portable kit, (Roche Diagnostics Korea Co., Ltd., Seoul, Korea).

[4] = molecular target: α-glucosidase (EC 3.2.1.20); details: for IC50 values, α–Glucosidase: means ± SE; for times more active than acarbose against α-glucosidase: ratio of IC50 values versus acarbose
Procedure: The inhibitory activity of each sample against α-glucosidase was measured as previously described[24]. Sample (25 μL) and phosphate buffer (25 μL; PB, 100 mM and pH 6.8) containing α-glucosidase (0.2 U/mL) was preincubated in a 96 well plate at 37 °C for 10 min. After 10 min, 5 mM PNPG (50 μL) in 100 mM PB was added and incubated at 37 °C for 15 min. The reaction was stopped by adding 150 μL of 200 mM NaCO3.

MCF-7 cells = test system: MCF-7 cells; parameters: method as in PMID 18386789; details: by inhibiting Cdk 2 activity; cited from earlier work

SMILES	IC50 [1] [µM]	times more active than acarbose against α-amylase [1] [times]	IC50 values, DPPH [2] [µg/mL]	times more active than ascorbic acid in DPPH radical scavenging [2] [times]	IC50 values, AGE (inhibition of AGEs formation) (AGEs formation) [µg/mL]	times more active than aminoguanidine in inhibition of AGEs formation (AGEs formation) [times]	effect on blood glucose levels [3]	IC50 values, α–Glucosidase [4] [µg/mL]	times more active than acarbose against α-glucosidase [4] [times]	cell proliferation of MCF-7 cells (MCF-7 cells)
CCCCCC=CCC=CCCCCCCCC(=O)O [9,12-Octadecadienoic acid, 9,12-octadecadienoic acid]	56.3	10.02	6.8 ± 1.2 (≈ 24.2 µM)	3.75	15.4 ± 1.8	3.54	significant suppressive effect	3.4 ± 1.5 (≈ 12.1 µM)	22.21	–
CCCCCCCCCCCCCCCC(=O)O [1-Pentadecanecarboxylic acid, 1-pentadecanecarboxylic acid]	656	–	20.8 ± 1.3 (≈ 81.1 µM)	–	40.6 ± 0.7	–	–	55.4 ± 3.2 (≈ 216 µM)	–	–
CC(=O)C=CC1C(C)=CCCC1(C)C (centres unmarked) [4-(2,6,6-trimethyl-2-cyclohexenyl)-3-buten-2-one]	–	–	23.2 ± 2.5 (≈ 121 µM)	–	50.5 ± 1.8	–	–	33.2 ± 1.8 (≈ 173 µM)	–	–
O=C1O[C@H]([C@@H](O)CO)C(O)=C1O [Ascorbic acid, reference compound]	–	–	25.5 ± 0.4 (≈ 145 µM)	–	–	–	–	–	–	–
CCCCCCCCCCCCCCCCCC(=O)O [1-Heptadecanecarboxylic acid, 1-heptadecanecarboxylic acid]	494	–	15.6 ± 2.2 (≈ 54.8 µM)	–	34.7 ± 2.6	–	–	46.2 ± 2.5 (≈ 162 µM)	–	–
CCCCCCCCCCCCCC(=O)O [1-Tridecanecarboxylic acid, 1-tridecanecarboxylic acid]	986	–	24.5 ± 1.8 (≈ 107 µM)	–	51.2 ± 1.8	–	–	60.4 ± 1.2 (≈ 264 µM)	–	–
CCCCCCCCC=CCCCCCCCC(=O)O [9-Octadecenoic acid, 9-octadecenoic acid]	83.2	–	7.6 ± 1.5 (≈ 26.9 µM)	–	18.8 ± 1.1	–	–	4.8 ± 0.9 (≈ 17 µM)	–	–
CCC=CCC=CCC=CCCCCCCCC(=O)O [9,12,15-Octadecatrienoic acid, 9,12,15-octadecatrienoic acid]	76.1	7.47	7.4 ± 0.9 (≈ 26.6 µM)	3.45	18.2 ± 2.3	2.95	–	4.5 ± 2.4 (≈ 16.2 µM)	16.78	–
CC(=O)C=CC1=C(C)CCCC1(C)C [4-(2,6,6-trimethyl-1-cyclohexenyl)-3-buten-2-one]	[…]	[…]	20.5 ± 1.5 (≈ 107 µM)	1.24	48.4 ± 2.3	[…]	weak suppressive effect	[…]	–	[…]
N=C(N)NN [Aminoguanidine, reference compound]	–	–	–	–	54.5 ± 0.7	–	–	–	–	–
